Where two headings read alike, the source gives them in different places.

Assay in all cases: KINOMEscan ScanTK
Assay type in all cases: binding

For assay [1], the target named is T1, TIE1 (Homo sapiens, UniProt P35590).
T1 construct: purchased Eurofins DiscoverX KINOMEscan (scanTK)

Assay [2] addresses T2, KIT(V559D,T670I) (Homo sapiens, UniProt P10721, T670I/V559D).
T2 construct: purchased Eurofins DiscoverX KINOMEscan (scanTK)

Assay [3] concerns the target T3, KIT (Homo sapiens, UniProt P10721).
T3 construct: purchased Eurofins DiscoverX KINOMEscan (scanTK)

In assay [4] the target is T4, EPHB3 (Homo sapiens, UniProt P54753).
T4 construct: purchased Eurofins DiscoverX KINOMEscan (scanTK)
T4 sequence (P54753 34-998): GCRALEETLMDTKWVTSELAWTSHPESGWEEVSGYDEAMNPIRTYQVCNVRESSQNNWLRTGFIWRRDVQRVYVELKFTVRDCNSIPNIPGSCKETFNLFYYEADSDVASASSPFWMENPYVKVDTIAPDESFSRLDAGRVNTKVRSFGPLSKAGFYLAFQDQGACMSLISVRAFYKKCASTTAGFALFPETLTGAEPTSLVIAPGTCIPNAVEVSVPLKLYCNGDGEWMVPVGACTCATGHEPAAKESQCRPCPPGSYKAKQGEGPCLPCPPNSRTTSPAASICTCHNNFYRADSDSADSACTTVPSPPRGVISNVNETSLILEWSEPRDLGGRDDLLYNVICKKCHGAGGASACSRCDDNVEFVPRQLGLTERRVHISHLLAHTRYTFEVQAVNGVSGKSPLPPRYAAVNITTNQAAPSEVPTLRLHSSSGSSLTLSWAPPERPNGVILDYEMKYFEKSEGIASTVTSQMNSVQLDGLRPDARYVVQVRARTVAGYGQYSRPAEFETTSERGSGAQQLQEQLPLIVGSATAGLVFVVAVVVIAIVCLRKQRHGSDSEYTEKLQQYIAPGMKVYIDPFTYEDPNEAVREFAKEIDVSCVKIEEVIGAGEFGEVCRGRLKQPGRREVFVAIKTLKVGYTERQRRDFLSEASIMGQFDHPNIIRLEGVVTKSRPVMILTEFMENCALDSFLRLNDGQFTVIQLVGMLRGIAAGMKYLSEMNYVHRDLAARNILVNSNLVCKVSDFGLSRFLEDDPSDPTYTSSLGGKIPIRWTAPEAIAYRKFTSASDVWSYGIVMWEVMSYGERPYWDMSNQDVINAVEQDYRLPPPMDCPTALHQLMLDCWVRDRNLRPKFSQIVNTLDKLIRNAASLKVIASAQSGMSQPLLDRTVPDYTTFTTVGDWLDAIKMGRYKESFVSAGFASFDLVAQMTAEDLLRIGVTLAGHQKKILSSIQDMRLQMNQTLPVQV

Assay [5] has as its target T5, AXL (Homo sapiens, UniProt P30530).
T5 construct: purchased Eurofins DiscoverX KINOMEscan (scanTK)
T5 sequence (P30530 26-894): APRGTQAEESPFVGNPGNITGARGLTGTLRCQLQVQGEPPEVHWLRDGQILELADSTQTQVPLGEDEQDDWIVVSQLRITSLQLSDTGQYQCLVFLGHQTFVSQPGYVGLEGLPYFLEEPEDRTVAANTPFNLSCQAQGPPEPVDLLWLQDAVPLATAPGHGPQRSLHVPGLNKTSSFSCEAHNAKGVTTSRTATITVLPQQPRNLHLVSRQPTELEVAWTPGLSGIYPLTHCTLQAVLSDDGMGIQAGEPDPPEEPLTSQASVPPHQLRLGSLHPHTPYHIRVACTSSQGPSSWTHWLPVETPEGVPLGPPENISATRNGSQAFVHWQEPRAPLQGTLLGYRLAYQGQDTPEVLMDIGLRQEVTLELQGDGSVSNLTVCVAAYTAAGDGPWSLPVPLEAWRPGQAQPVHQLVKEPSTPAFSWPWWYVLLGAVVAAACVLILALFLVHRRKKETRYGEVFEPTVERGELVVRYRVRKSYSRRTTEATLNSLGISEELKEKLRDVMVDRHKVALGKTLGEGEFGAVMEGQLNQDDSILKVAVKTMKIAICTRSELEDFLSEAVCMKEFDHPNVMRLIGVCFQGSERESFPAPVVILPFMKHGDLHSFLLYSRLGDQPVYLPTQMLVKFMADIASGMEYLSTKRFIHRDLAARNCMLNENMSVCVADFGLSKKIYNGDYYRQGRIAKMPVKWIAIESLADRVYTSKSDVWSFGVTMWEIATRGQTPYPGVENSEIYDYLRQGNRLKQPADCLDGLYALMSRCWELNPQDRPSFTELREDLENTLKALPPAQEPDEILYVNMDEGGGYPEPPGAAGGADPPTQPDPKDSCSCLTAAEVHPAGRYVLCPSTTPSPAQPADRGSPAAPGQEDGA

The target of assay [6] is T6, ABL1(T315I)-nonphosphorylated (Homo sapiens, UniProt P00519, T315I).
T6 construct: purchased Eurofins DiscoverX KINOMEscan (scanTK)

Assay [7] has as its target T7, EGFR(E746-A750del) (Homo sapiens, UniProt P00533, DEL746-750).
T7 construct: purchased Eurofins DiscoverX KINOMEscan (scanTK)

T1 sequence (P35590 22-1138): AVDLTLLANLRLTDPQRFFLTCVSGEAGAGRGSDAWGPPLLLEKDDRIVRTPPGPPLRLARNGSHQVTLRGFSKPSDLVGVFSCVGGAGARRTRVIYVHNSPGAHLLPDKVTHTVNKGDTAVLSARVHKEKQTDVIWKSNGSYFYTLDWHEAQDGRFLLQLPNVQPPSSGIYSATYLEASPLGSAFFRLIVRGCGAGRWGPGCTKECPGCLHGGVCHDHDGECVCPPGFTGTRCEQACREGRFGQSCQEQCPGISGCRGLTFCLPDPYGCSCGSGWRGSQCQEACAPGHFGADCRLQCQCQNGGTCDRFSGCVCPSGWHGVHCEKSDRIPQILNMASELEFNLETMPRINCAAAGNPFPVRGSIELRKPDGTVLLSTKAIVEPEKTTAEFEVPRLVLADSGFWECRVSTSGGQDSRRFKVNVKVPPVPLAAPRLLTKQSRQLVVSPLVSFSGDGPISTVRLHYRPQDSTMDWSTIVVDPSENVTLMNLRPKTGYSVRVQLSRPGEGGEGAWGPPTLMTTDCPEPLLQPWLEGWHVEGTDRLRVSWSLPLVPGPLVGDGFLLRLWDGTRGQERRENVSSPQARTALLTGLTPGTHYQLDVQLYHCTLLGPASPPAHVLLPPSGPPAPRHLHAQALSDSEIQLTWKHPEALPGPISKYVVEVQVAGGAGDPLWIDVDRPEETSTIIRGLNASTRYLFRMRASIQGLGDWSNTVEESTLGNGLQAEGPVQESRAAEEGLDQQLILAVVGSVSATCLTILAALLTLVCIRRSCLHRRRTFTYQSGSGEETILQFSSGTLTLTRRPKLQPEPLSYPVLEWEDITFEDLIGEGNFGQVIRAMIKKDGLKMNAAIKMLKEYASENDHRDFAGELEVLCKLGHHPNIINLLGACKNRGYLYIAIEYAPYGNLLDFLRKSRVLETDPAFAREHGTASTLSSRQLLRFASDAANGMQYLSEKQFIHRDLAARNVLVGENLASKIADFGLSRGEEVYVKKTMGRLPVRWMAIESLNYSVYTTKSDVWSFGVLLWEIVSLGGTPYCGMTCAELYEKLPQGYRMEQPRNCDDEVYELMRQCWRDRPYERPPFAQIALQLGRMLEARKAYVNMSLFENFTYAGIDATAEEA
T7 sequence (P00533 with tags, fused parts or gaps DEL746-750 limits assumed): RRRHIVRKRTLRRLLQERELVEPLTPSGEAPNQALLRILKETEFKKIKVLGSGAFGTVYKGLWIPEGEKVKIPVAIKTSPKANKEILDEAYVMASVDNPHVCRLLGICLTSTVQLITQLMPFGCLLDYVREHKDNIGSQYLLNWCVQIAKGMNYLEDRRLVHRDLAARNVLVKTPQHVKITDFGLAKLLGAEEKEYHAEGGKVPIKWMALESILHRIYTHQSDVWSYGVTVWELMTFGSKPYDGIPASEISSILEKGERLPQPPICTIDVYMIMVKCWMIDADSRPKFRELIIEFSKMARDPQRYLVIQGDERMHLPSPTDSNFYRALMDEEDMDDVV
T2 sequence (P10721 26-976 V559D/T670I): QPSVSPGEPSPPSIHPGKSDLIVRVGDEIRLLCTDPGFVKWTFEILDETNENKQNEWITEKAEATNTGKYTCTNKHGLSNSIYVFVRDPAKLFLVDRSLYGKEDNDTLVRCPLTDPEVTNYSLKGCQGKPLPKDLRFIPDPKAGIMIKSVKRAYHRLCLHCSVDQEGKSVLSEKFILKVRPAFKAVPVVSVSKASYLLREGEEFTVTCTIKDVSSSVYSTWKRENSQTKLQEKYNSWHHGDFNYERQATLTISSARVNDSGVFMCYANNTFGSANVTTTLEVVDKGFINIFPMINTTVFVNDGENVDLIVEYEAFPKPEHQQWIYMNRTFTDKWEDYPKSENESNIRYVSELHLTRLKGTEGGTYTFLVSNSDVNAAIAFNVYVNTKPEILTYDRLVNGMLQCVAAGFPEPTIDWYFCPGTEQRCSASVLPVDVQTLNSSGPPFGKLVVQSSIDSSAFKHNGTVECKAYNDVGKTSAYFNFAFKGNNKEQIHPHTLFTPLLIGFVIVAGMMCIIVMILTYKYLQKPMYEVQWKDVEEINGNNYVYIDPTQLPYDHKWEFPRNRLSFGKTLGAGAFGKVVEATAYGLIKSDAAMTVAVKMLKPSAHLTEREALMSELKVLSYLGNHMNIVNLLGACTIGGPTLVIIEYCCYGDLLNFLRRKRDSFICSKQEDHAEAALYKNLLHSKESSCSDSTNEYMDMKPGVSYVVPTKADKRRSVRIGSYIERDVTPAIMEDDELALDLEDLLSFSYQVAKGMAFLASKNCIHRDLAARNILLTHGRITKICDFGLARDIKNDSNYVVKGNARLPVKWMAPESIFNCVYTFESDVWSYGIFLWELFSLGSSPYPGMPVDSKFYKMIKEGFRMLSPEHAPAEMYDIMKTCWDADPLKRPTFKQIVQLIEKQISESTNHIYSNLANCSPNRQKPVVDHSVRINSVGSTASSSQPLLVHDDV
T3 sequence (P10721 26-976): as the sequence (P10721 26-976 V559D/T670I) above, with D534V, I645T counted along it

In the case of `C=CC(=O)N1CCC[C@@H](n2nc(-c3ccc(Oc4ccccc4)cc3)c3c(N)ncnc32)C1` [Compound 1g, Ibrutinib, reference compound], the remaining binding at 1 µM turned out to be 57% in assay [1] (@1000nM, read-out: %Control); 57% in assay [1] (read-out: %Control @1000nM); 68% in assay [2] (@1000nM, read-out: %Control); 68% in assay [2] (read-out: %Control @1000nM); 41% in assay [3] (@1000nM, read-out: %Control); 41% in assay [3] (read-out: %Control @1000nM). Besides, the remaining binding at 1 µM in assay [4] (@1000nM, read-out: %Control) is 98%; in assay [4] (read-out: %Control @1000nM), 98%; in assay [5] (@1000nM, read-out: %Control), 75%; in assay [5] (read-out: %Control @1000nM), 75%; in assay [6] (@1000nM, read-out: %Control), 93%; in assay [6] (read-out: %Control @1000nM), 93%.

In the case of `Cc1cnc(S(C)(=O)=O)nc1N1CCCC(n2nc(-c3ccc(Oc4ccccc4)cc3)c3c(N)ncnc32)C1` (centres unmarked) [Compound 8a, 1-(1-(5-Methyl-2-(methylsulfonyl)pyrimidin-4-yl)piperidin-3-yl)-3-(4-phenoxyphenyl)-1H-pyrazolo[3,4-d]pyrimidin-4-amine], the remaining binding at 1 µM in assay [1] (@1000nM, read-out: %Control) worked out at 89%; in assay [1] (read-out: %Control @1000nM), 89%; in assay [2] (@1000nM, read-out: %Control) it was 68%; in assay [2] (read-out: %Control @1000nM) it was 68%; in assay [7] (@1000nM, read-out: %Control) it was 99%; in assay [7] (read-out: %Control @1000nM) it was 99%. Further, the remaining binding at 1 µM in assay [3] (@1000nM, read-out: %Control) came to 61%; in assay [3] (read-out: %Control @1000nM), 61%; in assay [4] (@1000nM, read-out: %Control), 100%; in assay [4] (read-out: %Control @1000nM), 100%; in assay [5] (@1000nM, read-out: %Control) it was 100%; in assay [5] (read-out: %Control @1000nM), 100%. Further, the remaining binding at 1 µM in assay [6] (@1000nM, read-out: %Control) was found to be 82%; in assay [6] (read-out: %Control @1000nM), 82%. In addition, the difference in %Control versus compound Ib at 1 µM was 0% in assay [2] (@1000nM), 20% in assay [3] (@1000nM), 2% in assay [4] (@1000nM) and 25% in assay [5] (@1000nM). Also, in assay [7] (@1000nM), the difference in %Control from reference compound Ib at 1 µM worked out at 88%. The difference in % of control versus compound Ib at 1 µM in assay [6] (@1000nM) was -11%.

With `COC(=O)c1cnc(S(C)(=O)=O)nc1N1CCCC(n2nc(-c3ccc(Oc4ccccc4)cc3)c3c(N)ncnc32)C1` (centres unmarked) [Compound 8b, Methyl 4-(3-(4-Amino-3-(4-phenoxyphenyl)-1H-pyrazolo[3,4-d]pyrimidin-1-yl)piperidin-1-yl)-2-(methylsulfonyl)pyrimidine-5-carboxylate], the remaining binding at 1 µM in assay [1] (@1000nM, read-out: %Control) turned out to be 77%; in assay [1] (read-out: %Control @1000nM), 77%; in assay [2] (@1000nM, read-out: %Control) it was 92%; in assay [2] (read-out: %Control @1000nM) it was 92%; in assay [7] (@1000nM, read-out: %Control) it was 84%; in assay [7] (read-out: %Control @1000nM), 84%. Also, the remaining binding at 1 µM amounted to 71% in assay [3] (@1000nM, read-out: %Control); 71% in assay [3] (read-out: %Control @1000nM); 97% in assay [4] (@1000nM, read-out: %Control); 97% in assay [4] (read-out: %Control @1000nM); 100% in assay [5] (@1000nM, read-out: %Control); 100% in assay [5] (read-out: %Control @1000nM). The remaining binding at 1 µM is 76% in assay [6] (@1000nM, read-out: %Control) and 76% in assay [6] (read-out: %Control @1000nM). The difference in %Control versus compound Ib at 1 µM was 24% in assay [2] (@1000nM), 30% in assay [3] (@1000nM), -1% in assay [4] (@1000nM) and 25% in assay [5] (@1000nM). For the same compound, the difference in %Control from reference compound Ib at 1 µM in assay [7] (@1000nM) worked out at 73%. Further, the difference in % of control versus compound Ib at 1 µM in assay [6] (@1000nM) is -17%.

As to `CCOC(=O)c1cnc(S(C)(=O)=O)nc1N1CCC[C@@H](n2nc(-c3ccc(Oc4ccccc4)cc3)c3c(N)ncnc32)C1` [Compound 8c, Ethyl (R)-4-(3-(4-Amino-3-(4-phenoxyphenyl)-1H-pyrazolo[3,4-d]pyrimidin-1-yl)piperidin-1-yl)-2-(methylsulfonyl)pyrimidine-5-carboxylate], the remaining binding at 1 µM in assay [1] (@1000nM, read-out: %Control) worked out at 60%; in assay [1] (read-out: %Control @1000nM), 60%; in assay [2] (@1000nM, read-out: %Control), 34%; in assay [2] (read-out: %Control @1000nM), 34%; in assay [7] (@1000nM, read-out: %Control) it was 100%; in assay [7] (read-out: %Control @1000nM), 100%. Further, the remaining binding at 1 µM in assay [3] (@1000nM, read-out: %Control) is 93%; in assay [3] (read-out: %Control @1000nM) it was 93%; in assay [4] (@1000nM, read-out: %Control), 78%; in assay [4] (read-out: %Control @1000nM), 78%; in assay [5] (@1000nM, read-out: %Control), 100%; in assay [5] (read-out: %Control @1000nM), 100%. Also, the remaining binding at 1 µM in assay [6] (@1000nM, read-out: %Control) was determined as 84%; in assay [6] (read-out: %Control @1000nM) it was 84%. In addition, the difference in %Control versus compound Ib at 1 µM in assay [2] (@1000nM) was -34%; in assay [3] (@1000nM), 52%; in assay [4] (@1000nM) it was -20%; in assay [5] (@1000nM) it was 25%. The compound further returned a difference in %Control from reference compound Ib at 1 µM in assay [7] (@1000nM) of 89%. Also, the difference in % of control versus compound Ib at 1 µM in assay [6] (@1000nM) was -9%.

As for `CNC(=O)c1cnc(S(C)(=O)=O)nc1N1CCCC(n2nc(-c3ccc(Oc4ccccc4)cc3)c3c(N)ncnc32)C1` (centres unmarked) [Compound 8d, 4-(3-(4-Amino-3-(4-phenoxyphenyl)-1H-pyrazolo[3,4-d]pyrimidin-1-yl)piperidin-1-yl)-N-methyl-2-(methylsulfonyl)pyrimidine-5-carboxamide], the remaining binding at 1 µM in assay [1] (@1000nM, read-out: %Control) was determined as 69%; in assay [1] (read-out: %Control @1000nM), 69%; in assay [2] (@1000nM, read-out: %Control), 79%; in assay [2] (read-out: %Control @1000nM), 79%; in assay [7] (@1000nM, read-out: %Control), 85%; in assay [7] (read-out: %Control @1000nM), 85%. For the same compound, the remaining binding at 1 µM is 99% in assay [3] (@1000nM, read-out: %Control); 99% in assay [3] (read-out: %Control @1000nM); 100% in assay [4] (@1000nM, read-out: %Control); 100% in assay [4] (read-out: %Control @1000nM); 97% in assay [5] (@1000nM, read-out: %Control); 97% in assay [5] (read-out: %Control @1000nM). Also, the remaining binding at 1 µM in assay [6] (@1000nM, read-out: %Control) is 77%; in assay [6] (read-out: %Control @1000nM), 77%. In addition, the difference in %Control versus compound Ib at 1 µM was found to be 11% in assay [2] (@1000nM), 58% in assay [3] (@1000nM), 2% in assay [4] (@1000nM) and 22% in assay [5] (@1000nM). In assay [7] (@1000nM), this compound came in with a difference in %Control from reference compound Ib at 1 µM of 74%. Also, the difference in % of control versus compound Ib at 1 µM in assay [6] (@1000nM) is -16%.
